Earlier results on one molecule are cited in patent publication US10494420B2, “Mast cell stabilizers for treatment of hypercytokinemia and viral infection” (priority 2016, dated 2019).

For one data set, the system named is H5N1 Influenza Virus. Conditions: mouse, in vivo.
The conditions of data set [1]: intranasal delivery versus any other route, rabbits.

Molecules are shown by their SMILES.

On to `CN1CCC(=C2c3ccccc3CC(=O)c3sccc32)CC1` [ketotifen], for which, in the data set with H5N1 Influenza Virus, the impact on survival entry is given as “increased when the compounds were combined” and the survival of mice entry was “increase survival of mice”. In data set [1], the bioavailability entry is reported as “more bioavailable using intranasal delivery”. Besides, in the data set with mast cells, the “mast cell degranulation and release of mediators (histamine, TNF-α, prostaglandins, leukotrienes, interleukins)” value is recorded as “inhibit mast cell degranulation”.
